Experimental data: ChEMBL document CHEMBL1151147, “Furanoid lignans from Larrea tridentata” (J Nat Prod, 1990)
Active and inactive are the calls of the source. No cut-off for these calls is given here.

Experiments:
Type in all cases: functional, organism-based
Rattus norvegicus [1] = assay: Estrogenic activity in Sprague-Dawley rat at 30 mg/kg; design: dose 30 mg/kg
Rattus norvegicus [2] = assay: Antiimplantation activity in Sprague-Dawley rat assessed as decrease in implantation sites at 60 mg/kg administered postcoitally; design: dose 60 mg/kg
Rattus norvegicus [3] = assay: Antiimplantation activity in Sprague-Dawley rat at 5 mg/kg, po administered postcoitally; design: dose 5 mg/kg
Rattus norvegicus [4] = assay: Antiimplantation activity in Sprague-Dawley rat assessed as absence of viable fetuses at 15 mg/kg administered postcoitally; design: dose 15 mg/kg
Rattus norvegicus [5] = assay: Antiimplantation activity in Sprague-Dawley rat administered postcoitally
Rattus norvegicus [6] = assay: Antiimplantation activity in Sprague-Dawley rat assessed as decrease in implantation sites at 30 mg/kg administered postcoitally; design: dose 30 mg/kg
Rattus norvegicus [7] = assay: Antiimplantation activity in Sprague-Dawley rat assessed as decrease in fertility rate at 30 mg/kg administered postcoitally; design: dose 30 mg/kg

SMILES: C[C@H]1[C@H](c2ccc(O)cc2)c2cc(O)c(O)cc2C[C@H]1C
- Activity (Rattus norvegicus [1]): Active
- Activity (Rattus norvegicus [2]): Active
- Activity (Rattus norvegicus [3]): inactive
- Activity (Rattus norvegicus [4]): Active
- Activity (Rattus norvegicus [5]): Dose-dependent effect
- Activity (Rattus norvegicus [6]): Active
- Activity (Rattus norvegicus [7]): Active
